The results in this text go back to patent US20060019270A1, “Global DNA methylation assessment using bisulfite PCR” (Board of Regents The University of Texas System, priority 2004, published 2006).

For this assay, the system named is Alu element methylation in Hct116 cells. Description: COBRA (MboI) of Alu repetitive element PCR, Hct116 cells treated with DAC. Format: cell-based, human. To be noted: 5 μM DAC for three days, 29% prior to treatment. On the procedure:
Hct116, RKO and SW48, colon cancer cell lines (American Type Culture Collection, Manassas, Va.), were cultured using standard methods. Cells were treated with 5 μM 5-aza-2′deoxycytidine (DAC) for three days prior to being harvested. DNA from cell lines and peripheral blood leukocytes was extracted using phenol-chloroform extraction methods well known to one with skill on the art.
Bisulfite modification of genomic DNA is known in the art (see Clark et. al, 1994). In brief, 1.5 μg prepared 10 mM hydroquinone (Sigma) and 520 μl of 3M Sodium Bisulfite (Sigma) at pH=5.0 were added and mixed. The samples were overlayed with mineral oil to prevent evaporation and incubated at 50° C. for 16 hours. […] Bisulfite treated DNA was stored at −20° C. until ready for use.
Methylation analysis of Alu repetitive elements was performed initially by the COBRA assay. […] The digested PCR product was then separated by polyacrylamide gel electrophoresis or the PCR products were quantitated using a capillary electrophoresis system, an Agilent 2100 Bioanalyzer (Agilent Technologies, Palo Alto, Calif.).
In order to test whether Alu element […] LINE-1 methylation could approximate global methylation, COBRA, restriction digestion of the repetitive element PCR product, was used to quantitate DNA methylation in cell lines treated with 5-aza-2′deoxycytidine (DAC) (FIG. 3). […]

Consider `Nc1ncn([C@H]2C[C@H](O)[C@@H](CO)O2)c(=O)n1` [decitabine, 5-aza-2′-deoxycytidine], for which the “Alu element methylation after treatment with DAC” value is recorded as 16%.
